Experimental data published in patent publication US20260125428A1, “SYNTHETIC TRIPLEX PEPTIDE NUCLEIC ACID-BASED INHIBITORS FOR CANCER THERAPY” (University of Connecticut, priority 2022, published 2026).

System: c-myc protein
Experiment: Efficacy study in Ep-myc mice: c-myc protein in lymph nodes by western blot
Type: in vivo
Conditions: SC 60 mg/kg over 2 days, euthanized day 3, western blot
Method: FIGS. 8A-D show organ distribution after intravenous and subcutaneous administration of indicated PNAs. (8A) The organ distribution of γPNA-NLS TAMRA after intravenous (IV) and subcutaneous (SC) administration in transgenic mice model of B-cell lymphoma (Ep-myc). γPNA-NLS TAMRA was administered at 5 mg/kg via IV and SC route and organ distribution was determined via IVIS imaging after 24 h. (8B) Confocal microscopy images of different lymph nodes (LNs) after IV and SC injection of γPNA-NLS TAMRA. Blue indicates DAPI and red indicated TAMRA. Scale bar, 30 μm. (8C) C-myc protein levels in brachial lymph nodes of γPNA5-NLS treated mice in comparison to the control (untreated mice). N=4 mice per group. (8D) C-myc protein levels in axillary lymph nodes of γPNA5-NLS treated mice in comparison to the control (untreated mice). N=4 mice per group. […]
Western blot analysis: Total protein was extracted from collected lymphocytes using 1×RIPA buffer (Cell signaling technology, USA) containing protease inhibitor. The concentration of protein was determined using absorbance-based DC protein assay (Bio-Rad, USA). […] The bands were detected using anti-rabbit IgG HRP linked secondary antibody (Cell signaling technology, #7074) (1:2000 dilution, 5% milk in TBST) and HRP substrate (Millipore sigma). The blots were imaged using ChemiDoc imager (Bio-Rad, USA) and band intensities were quantified using imageJ.

Substance: X3TCCCTCCCCTCCCTTCTTTTTCCX2 (gamma PNA; NLS peptide; gammaPNA; misc_feature 1 JJJTJJJT-linker- is covalently linked to the backbone, wherein J is pseudoisocytosine and the linker is 11-Amino-3,6,9-Trioxaundecanoic Acid (DCHA), represented as -OOO-; misc_feature 23 -K-linker-SEQ ID NO: 5 is covalently linked to the backbone, wherein the linker is 11-Amino-3,6,9-Trioxaundecanoic Acid (DCHA), represented as -OOO-; modified_base 1..23 OTHER; peptide nuc) [γPNA5-NLS]
- c-myc protein levels in brachial and axillary lymph nodes in comparison to untreated group: substantial decrease in c-myc protein levels
